# Measurements: article PMC12624743 (ACS Infectious Diseases, 2025)
# Key:
# [1] = molecular target: N. gonorrhoeae topoisomerase IV ParC^S87N (Neisseria gonorrhoeae, UniProt P48374, S87N); experiment: Topoisomerase IV-catalyzed DNA decatenation assay, ParC^S87N; assay type: biochemical; design: His; made in house
# Experimental: (§1) All proteins were His-tagged. N. gonorrhoeae WT gyrase (GyrA, GyrB) and topoisomerase IV (ParC, ParE) subunits as well as mutant GyrA^D90N, GyrA^A92T, GyrA^S91F, and GyrA^S91F/D95G gyrase and ParC^D86N and ParC^S88P topoisomerase IV were prepared as described previously. , N. gonorrhoeae mutant GyrA^D95G gyrase and mutant ParC^S87N and ParC^E91G topoisomerase IV were generated using a QuickChange II XL site-directed mutagenesis kit (Agilent Technologies) with custom primers for the desired mutations. Mutant N. gonorrhoeae GyrA and ParC subunits were expressed and purified as described by Ashley et al. with the following modifications to optimize protein expression and lysis: (1) GyrA^D95G was expressed for 2.5 h and ParC^S87N and ParC^E91G were expressed for 3 h before harvesting, and (2) cells were lysed by sonication using a digital sonifier (Branson). The identities of all constructs were confirmed by DNA sequencing, and all enzymes were stored at −80 °C. In all assays, N. gonorrhoeae gyrase or topoisomerase IV was used as a 1:1 GyrA:GyrB or ParC:ParE mixture, respectively, and the stated enzyme concentration reflects that of the holoenzyme (A2B2). […]
# WT N. gonorrhoeae gyrase = molecular target: T1, WT N. gonorrhoeae gyrase (Neisseria gonorrhoeae, UniProt P48371); experiment: Gyrase-catalyzed DNA supercoiling assay, WT; assay type: biochemical; conditions: relaxed pBR322, 1.5 mM ATP, read-out: IC50, inhibition of DNA supercoiling
# T1 construct: His; made in house
# T1 sequence (P48371 whole entry): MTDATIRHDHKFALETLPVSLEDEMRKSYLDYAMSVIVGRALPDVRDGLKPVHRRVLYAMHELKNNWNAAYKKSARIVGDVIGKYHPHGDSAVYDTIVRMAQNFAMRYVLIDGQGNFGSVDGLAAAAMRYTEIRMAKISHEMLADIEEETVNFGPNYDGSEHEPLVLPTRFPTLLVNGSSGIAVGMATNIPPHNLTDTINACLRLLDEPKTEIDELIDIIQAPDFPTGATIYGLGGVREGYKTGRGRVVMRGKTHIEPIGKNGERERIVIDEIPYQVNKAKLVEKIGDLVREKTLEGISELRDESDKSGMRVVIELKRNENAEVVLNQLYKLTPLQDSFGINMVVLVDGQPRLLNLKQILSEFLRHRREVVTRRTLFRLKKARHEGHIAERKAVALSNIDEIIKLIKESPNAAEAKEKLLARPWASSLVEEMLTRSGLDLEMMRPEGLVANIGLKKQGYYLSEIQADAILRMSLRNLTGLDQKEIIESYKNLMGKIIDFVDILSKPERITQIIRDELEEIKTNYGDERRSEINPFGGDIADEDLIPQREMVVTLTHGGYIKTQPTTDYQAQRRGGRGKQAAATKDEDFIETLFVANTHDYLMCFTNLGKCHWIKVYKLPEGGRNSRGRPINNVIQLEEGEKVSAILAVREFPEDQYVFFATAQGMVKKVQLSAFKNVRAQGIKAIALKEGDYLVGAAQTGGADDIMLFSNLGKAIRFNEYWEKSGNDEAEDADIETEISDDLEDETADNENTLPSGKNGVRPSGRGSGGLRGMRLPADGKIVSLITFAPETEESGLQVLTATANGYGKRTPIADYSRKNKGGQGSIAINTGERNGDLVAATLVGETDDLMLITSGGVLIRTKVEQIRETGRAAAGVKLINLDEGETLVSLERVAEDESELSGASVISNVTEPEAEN
# T1 sequence (P22118 whole entry partner): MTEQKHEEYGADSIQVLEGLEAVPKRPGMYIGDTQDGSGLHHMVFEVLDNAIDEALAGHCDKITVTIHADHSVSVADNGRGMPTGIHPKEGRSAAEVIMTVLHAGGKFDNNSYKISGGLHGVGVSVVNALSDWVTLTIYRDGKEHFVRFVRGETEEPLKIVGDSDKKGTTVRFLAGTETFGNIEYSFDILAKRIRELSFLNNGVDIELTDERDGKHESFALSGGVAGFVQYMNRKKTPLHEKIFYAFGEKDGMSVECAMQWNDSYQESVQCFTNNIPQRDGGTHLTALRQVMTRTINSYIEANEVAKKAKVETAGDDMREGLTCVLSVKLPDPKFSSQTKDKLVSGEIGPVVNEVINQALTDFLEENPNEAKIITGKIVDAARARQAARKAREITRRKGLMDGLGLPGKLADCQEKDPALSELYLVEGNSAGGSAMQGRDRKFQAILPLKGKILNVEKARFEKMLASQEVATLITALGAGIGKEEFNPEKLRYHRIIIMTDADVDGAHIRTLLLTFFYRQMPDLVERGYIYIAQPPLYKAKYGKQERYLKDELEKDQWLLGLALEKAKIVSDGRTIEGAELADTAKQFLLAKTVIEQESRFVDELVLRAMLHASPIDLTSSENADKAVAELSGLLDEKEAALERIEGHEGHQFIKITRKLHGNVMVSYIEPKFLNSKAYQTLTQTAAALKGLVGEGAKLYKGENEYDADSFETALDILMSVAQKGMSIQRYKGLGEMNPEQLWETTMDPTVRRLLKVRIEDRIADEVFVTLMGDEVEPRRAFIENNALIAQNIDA
# Experimental: (§2) All proteins were His-tagged. N. gonorrhoeae WT gyrase (GyrA, GyrB) and topoisomerase IV (ParC, ParE) subunits as well as mutant GyrA^D90N, GyrA^A92T, GyrA^S91F, and GyrA^S91F/D95G gyrase and ParC^D86N and ParC^S88P topoisomerase IV were prepared as described previously. , N. gonorrhoeae mutant GyrA^D95G gyrase and mutant ParC^S87N and ParC^E91G topoisomerase IV were generated using a QuickChange II XL site-directed mutagenesis kit (Agilent Technologies) with custom primers for the desired mutations. […] The identities of all constructs were confirmed by DNA sequencing, and all enzymes were stored at −80 °C. In all assays, N. gonorrhoeae gyrase or topoisomerase IV was used as a 1:1 GyrA:GyrB or ParC:ParE mixture, respectively, and the stated enzyme concentration reflects that of the holoenzyme (A2B2).
# (§3) Samples were mixed with 2 μL of loading dye [60% sucrose, 10 mM Tris–HCl (pH 7.9), 0.5% bromophenol blue, and 0.5% xylene cyanol FF] and incubated at 45 °C for 2 min before being subjected to electrophoresis on 1% agarose gels in 100 mM Tris-borate (pH 8.3) and 2 mM EDTA. […] DNA bands were visualized with medium-range ultraviolet light and quantified using an Alpha Innotech digital imaging system (Protein Simple). DNA supercoiling was monitored by the conversion of relaxed to supercoiled plasmid.
# [2] = molecular target: T2, N. gonorrhoeae gyrase GyrA^D90N (Neisseria gonorrhoeae, UniProt P48371, D90N); experiment: Gyrase-catalyzed DNA supercoiling assay, GyrA^D90N; assay type: biochemical; conditions: read-out: IC50, inhibition of DNA supercoiling
# T2 construct: His; made in house
# T2 sequence (P48371 whole entry D90N): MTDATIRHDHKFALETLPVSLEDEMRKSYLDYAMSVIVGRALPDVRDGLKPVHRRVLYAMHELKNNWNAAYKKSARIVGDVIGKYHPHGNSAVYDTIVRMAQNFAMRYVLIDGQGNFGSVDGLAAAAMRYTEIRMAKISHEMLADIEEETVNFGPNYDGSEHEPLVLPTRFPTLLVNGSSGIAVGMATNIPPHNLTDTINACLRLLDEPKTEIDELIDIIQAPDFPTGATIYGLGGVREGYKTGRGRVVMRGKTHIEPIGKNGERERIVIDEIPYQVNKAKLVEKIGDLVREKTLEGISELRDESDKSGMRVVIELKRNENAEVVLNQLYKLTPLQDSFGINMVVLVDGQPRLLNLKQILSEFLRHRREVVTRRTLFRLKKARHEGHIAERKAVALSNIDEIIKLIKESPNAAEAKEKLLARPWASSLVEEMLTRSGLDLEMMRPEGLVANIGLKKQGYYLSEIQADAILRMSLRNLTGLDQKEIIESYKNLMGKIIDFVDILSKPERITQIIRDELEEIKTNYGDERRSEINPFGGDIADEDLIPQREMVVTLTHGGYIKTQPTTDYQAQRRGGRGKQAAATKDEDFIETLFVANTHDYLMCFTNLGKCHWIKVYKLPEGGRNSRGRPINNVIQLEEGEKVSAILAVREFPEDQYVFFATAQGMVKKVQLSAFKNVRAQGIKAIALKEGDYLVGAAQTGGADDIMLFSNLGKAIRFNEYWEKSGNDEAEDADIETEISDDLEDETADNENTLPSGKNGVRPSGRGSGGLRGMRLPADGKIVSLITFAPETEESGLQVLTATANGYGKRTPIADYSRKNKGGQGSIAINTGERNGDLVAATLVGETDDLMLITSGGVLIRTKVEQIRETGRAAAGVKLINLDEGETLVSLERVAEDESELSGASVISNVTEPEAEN
# T2 sequence (P22118 whole entry partner): as the sequence (P22118 whole entry partner) above
# Experimental: as §2, §3
# [3] = molecular target: N. gonorrhoeae topoisomerase IV ParC^E91G (Neisseria gonorrhoeae, UniProt P48374, E91G); experiment: Topoisomerase IV-catalyzed DNA decatenation assay, ParC^E91G; assay type: biochemical; design: His; made in house
# N. gonorrhoeae topoisomerase IV ParC^E91G, sequence (P48374 whole entry E91G): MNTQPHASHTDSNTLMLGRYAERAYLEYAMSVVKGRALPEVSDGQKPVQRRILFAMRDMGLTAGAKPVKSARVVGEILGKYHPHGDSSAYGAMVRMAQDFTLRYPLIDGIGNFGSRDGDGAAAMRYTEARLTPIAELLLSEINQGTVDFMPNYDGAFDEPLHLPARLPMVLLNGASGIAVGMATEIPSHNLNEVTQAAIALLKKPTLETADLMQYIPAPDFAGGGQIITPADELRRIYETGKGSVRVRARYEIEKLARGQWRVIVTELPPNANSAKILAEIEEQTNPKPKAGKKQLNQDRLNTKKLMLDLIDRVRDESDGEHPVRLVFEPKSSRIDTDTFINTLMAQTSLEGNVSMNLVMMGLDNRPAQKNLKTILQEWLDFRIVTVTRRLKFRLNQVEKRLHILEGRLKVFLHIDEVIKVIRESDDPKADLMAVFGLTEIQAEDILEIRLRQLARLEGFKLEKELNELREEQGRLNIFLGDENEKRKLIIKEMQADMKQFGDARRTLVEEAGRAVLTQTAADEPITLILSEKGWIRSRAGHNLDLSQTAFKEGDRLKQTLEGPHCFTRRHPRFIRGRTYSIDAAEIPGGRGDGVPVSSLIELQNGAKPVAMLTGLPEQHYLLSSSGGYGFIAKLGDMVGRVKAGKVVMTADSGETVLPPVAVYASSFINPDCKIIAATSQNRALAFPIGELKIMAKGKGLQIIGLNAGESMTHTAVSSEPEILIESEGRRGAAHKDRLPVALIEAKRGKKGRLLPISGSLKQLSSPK
# Experimental: as §1
# [4] = test system: N. gonorrhoeae FA1090E (GyrA^WT/ParC^WT, efflux mutant); experiment: MIC by agar dilution, WT/WT efflux-mutant parental strain; assay type: cell-based; conditions: Neisseria gonorrhoeae, 48 h
# Experimental: (§4) Mutations in these efflux genes can result in increased efflux to multiple antibiotics. […] Parental and isogenic mutant strains generated that carried the efflux mutations mtrR-79 and norM ΔT T6 were designated as FA1090E (E for efflux positive). Only the additional GyrA and ParC genotypes are described in Table and in the text. The mutant that additionally expressed ParC^D86N was named FA1090E-2.
# (§5) Minimum inhibitory concentration (MIC) of test compounds was determined by an agar dilution method, the reference testing method for N. gonorrhoeae according to the standards of the Clinical and Laboratory Standards Institute and the CDC.
# [5] = molecular target: T3, WT N. gonorrhoeae topoisomerase IV (Neisseria gonorrhoeae, UniProt P48374); experiment: Topoisomerase IV-catalyzed DNA decatenation assay, WT; assay type: biochemical; design: His; made in house
# T3 sequence (P48374 1-768): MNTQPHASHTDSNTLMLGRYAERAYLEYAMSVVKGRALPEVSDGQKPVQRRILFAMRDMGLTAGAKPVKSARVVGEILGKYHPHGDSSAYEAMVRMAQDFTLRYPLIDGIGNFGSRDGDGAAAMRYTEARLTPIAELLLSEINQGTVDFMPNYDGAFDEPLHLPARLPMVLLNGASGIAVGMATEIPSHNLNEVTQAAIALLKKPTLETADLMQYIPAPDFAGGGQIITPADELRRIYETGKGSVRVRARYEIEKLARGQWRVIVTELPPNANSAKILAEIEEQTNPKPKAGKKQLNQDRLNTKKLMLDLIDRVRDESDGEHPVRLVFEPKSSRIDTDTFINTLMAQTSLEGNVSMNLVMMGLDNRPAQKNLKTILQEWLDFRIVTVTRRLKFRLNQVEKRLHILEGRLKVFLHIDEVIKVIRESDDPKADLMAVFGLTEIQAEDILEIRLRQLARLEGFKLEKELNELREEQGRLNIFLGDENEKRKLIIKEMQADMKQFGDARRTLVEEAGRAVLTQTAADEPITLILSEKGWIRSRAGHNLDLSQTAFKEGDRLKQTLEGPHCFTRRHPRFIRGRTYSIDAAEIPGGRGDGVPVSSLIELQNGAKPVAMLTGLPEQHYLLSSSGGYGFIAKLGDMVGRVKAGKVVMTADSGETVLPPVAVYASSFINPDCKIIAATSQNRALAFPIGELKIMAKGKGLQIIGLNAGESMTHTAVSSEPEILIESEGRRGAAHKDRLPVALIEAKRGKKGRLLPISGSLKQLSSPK
# Experimental: as §1
# [6] = test system: N. gonorrhoeae FA1090E-2 (GyrA^WT/ParC^D86N); experiment: MIC by agar dilution, ParC^D86N strain; assay type: cell-based; conditions: Neisseria gonorrhoeae
# Experimental: as §4, §5
# N. gonorrhoeae topoisomerase IV ParC^S87N, sequence (P48374 whole entry S87N): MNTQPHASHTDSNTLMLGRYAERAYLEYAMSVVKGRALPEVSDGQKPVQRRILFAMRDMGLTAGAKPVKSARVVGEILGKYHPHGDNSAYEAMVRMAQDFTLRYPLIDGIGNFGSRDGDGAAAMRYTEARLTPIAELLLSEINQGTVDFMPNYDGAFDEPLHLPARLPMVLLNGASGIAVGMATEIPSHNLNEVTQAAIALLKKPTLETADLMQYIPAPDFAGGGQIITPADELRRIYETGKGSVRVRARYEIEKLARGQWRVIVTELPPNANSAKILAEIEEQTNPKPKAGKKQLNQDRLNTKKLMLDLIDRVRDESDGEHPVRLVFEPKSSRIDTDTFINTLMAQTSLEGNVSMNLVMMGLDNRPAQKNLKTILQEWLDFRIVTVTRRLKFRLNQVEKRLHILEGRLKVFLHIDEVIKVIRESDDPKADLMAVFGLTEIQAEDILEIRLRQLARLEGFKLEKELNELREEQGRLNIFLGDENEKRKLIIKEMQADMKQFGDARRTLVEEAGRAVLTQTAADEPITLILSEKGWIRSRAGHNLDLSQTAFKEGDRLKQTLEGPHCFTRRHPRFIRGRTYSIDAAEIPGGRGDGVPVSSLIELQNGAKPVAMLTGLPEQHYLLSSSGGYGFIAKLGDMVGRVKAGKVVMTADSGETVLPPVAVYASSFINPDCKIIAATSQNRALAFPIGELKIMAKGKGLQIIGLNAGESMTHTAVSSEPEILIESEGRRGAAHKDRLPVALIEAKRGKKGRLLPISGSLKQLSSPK
structure (smiles),measurement,setting,value
O=c1ccc2ncc(=O)n3c2n1C[C@H]3CN1CCC(NCc2cc3c(cn2)OCCC3)CC1 [gepotidacin],IC50,[1],800 nM
same,IC50,WT N. gonorrhoeae gyrase,5100 ± 2300 nM
same,IC50,[2],> 100000 nM
same,IC50,[3],1500 nM
same,MIC,[4],0.5 µg/mL
same,IC50,[5],1800 ± 1300 nM
same,MIC,[6],0.5 µg/mL
